Results published in patent US20090123581A1, “COLLAGEN CROSS-LINKING AGENTS ON DENTAL RESTORATIVE TREATMENT AND PREVENTIVE DENTISTRY” (THE BOARD OF TRUSTEES OF THE UNIVERSITY OF ILLINOIS, priority 2006, published 2009).

How the values were obtained:
[1] = Ultimate tensile strength (UTS) of undemineralized (mineralized) dentin after cross-linker treatment (Example 1); design: species or system human; conditions: 0.625% GE or 5% GD; for Ultimate tensile strength, mean: pH 7.4
Source text: (§1) Fixation Processes: Ten sound freshly extracted human molars were used in this study. The teeth were thawed, cleaned of adhering soft tissues, and the occlusal surfaces were ground flat with #320 grit Silicon Carbide paper under running water to remove part of the enamel. Flattening of the occlusal surface by removal of the cusps enables accurate sectioning of samples in beam shape. Teeth were sectioned into 0.5±0.1 by 0.5±0.1 mm thick beams (n=20 beams per tooth) with a slow speed diamond wafering blade (Buehler-Series 15LC Diamond, Lake Bluff, Ill., USA) under constant water coolant (FIG. 1A).
(§2) The slabs were randomly divided into two groups: 1) undemineralized dentin and 2) demineralized dentin (FIG. 1A). In Group 2, dentin beams were immersed in 10% phosphoric acid solution (Fisher Scientific, New Jersey, N.J.) for a period of 5 hours. X-rays were taken from the specimens to verify complete tissue demineralization. Specimens were thoroughly rinsed with distilled water for 10 minutes to remove any residue of the phosphoric acid.
(§3) Specimens from groups 1 and 2 were subdivided according to the dentin treatment (FIG. 1B). In Treatment A, specimens were immersed in PBS solution (pH: 7.4) as a control. In Treatment B, specimens were immersed in 0.5% Proanthocyanidin (MegaNatural—Polyphenolics Ind.) PBS solution (PA) at a pH of 7.4. In Treatment C, specimens were immersed in 0.625% Genipin (Wako Pure Chemical Ind.) PBS solution (GE) at a pH of 7.4. In Treatment D, specimens were immersed in 5% glutaraldehyde solution (GD) (Fisher Scientific, New Jersey, N.J.) at a pH of 7.4. Specimens were kept in their respective solutions for 4 and 40 hours at room temperature. After the incubation periods, specimens were thoroughly rinsed with distilled and deionized water to remove any remains of cross-linking agents and buffer.
(§4) UTS testing: For UTS evaluation, the specimens were glued with a cyanoacrylate adhesive (Zapit—Dental Ventures of America Inc., Corona, Calif.) to a Ciucchi's jig, which was mounted on a universal testing machine (EZ Test, Shimazu Co., Kyoto, Japan) and subjected to microtensile testing at a crosshead speed of 1 mm/min (FIG. 1C). Means and standard deviations were calculated and expressed in microtensile bond strengths (MPa). Statistical analysis was performed using a two-way ANOVA and Fisher's PLSD tests (p<0.05).

[2] = Ultimate tensile strength (UTS) of demineralized dentin after cross-linker treatment (Example 1); design: species or system human; conditions: for Ultimate tensile strength, mean: pH 7.4
Source text: as §1, §2, §3, §4

## COC(=O)C1=CO[C@@H](O)[C@@H]2C(CO)=CC[C@H]12 [GE, genipin]
[1]; 4 hours in 0.5% PA
  Ultimate tensile strength, mean: 84.2 MPa
[1]; 40 hours in 0.5% PA
  Ultimate tensile strength, mean: 94.2 MPa
[1]; pooled over 4 and 40 hours, 0.5% PA
  Ultimate tensile strength, pooled data: 89.2 A MPa
[2]; 4 hours in 0.5% PA, 0.625% GE or 5% GD
  Ultimate tensile strength, mean: 11.0 MPa
[2]; 40 hours in 0.5% PA, 0.625% GE or 5% GD
  Ultimate tensile strength, mean: 18.2 MPa
[2]; 40 hours treatment, versus control
  increase in the UTS values: approximately 80%
[2]; pooled over 4 and 40 hours, 0.5% PA, 0.625% GE or 5% GD
  Ultimate tensile strength, pooled data: 14.6 B MPa
[2]; two-way ANOVA, Fisher's PLSD
  UTS values compared to the control group (statistics): statistically significant increase
